ChEMBL document CHEMBL1687880, “Synthesis of cell-permeable stapled peptide dual inhibitors of the p53-Mdm2/Mdmx interactions via photoinduced cycloaddition” (Bioorg Med Chem Lett, 2011)
pIC50: −log10 of the molar value. Calls of active or inactive are those of the source. The rule behind the calls is not given here. Non-standard residues stand in square brackets, D forms with d. Residues, ends and D or L forms follow the SMILES beside them. *: point of attachment. Tetrazole5CO(2-(4-MeOPh)) = COc1ccc(-n2nnc(C(=O)*)n2)cc1; Trp(6-Cl) = N[C@@H](Cc1c[nH]c2cc(Cl)ccc12)C(=O)O; X1 = COc1ccc(N2N=C(C(=O)*)CC2C(N)=O)cc1; Methacryloyl = C=C(C)C(=O)*

biological target: E3 ubiquitin-protein ligase Mdm2 (Homo sapiens, UniProt Q00987); test: Inhibition of human GST-tagged Mdm2 expressed in Escherichia coli harboring integrated p53-Mmd2 protein assessed as blockade of enzyme-p53 interaction by ELISA assay
Sequence (Q00987 whole entry): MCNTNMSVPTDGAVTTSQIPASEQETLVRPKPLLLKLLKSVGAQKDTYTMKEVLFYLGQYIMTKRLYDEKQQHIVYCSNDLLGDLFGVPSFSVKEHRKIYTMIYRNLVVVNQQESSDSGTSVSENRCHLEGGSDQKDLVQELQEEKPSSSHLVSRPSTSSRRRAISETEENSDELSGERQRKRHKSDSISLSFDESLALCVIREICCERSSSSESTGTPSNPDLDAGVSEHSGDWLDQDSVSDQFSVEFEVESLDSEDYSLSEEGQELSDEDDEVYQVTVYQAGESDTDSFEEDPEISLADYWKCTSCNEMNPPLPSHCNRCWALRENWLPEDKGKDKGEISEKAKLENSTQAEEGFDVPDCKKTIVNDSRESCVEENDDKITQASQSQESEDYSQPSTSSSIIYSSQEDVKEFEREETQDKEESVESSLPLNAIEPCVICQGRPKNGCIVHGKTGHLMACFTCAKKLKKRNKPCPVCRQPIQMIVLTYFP

| pIC50 | Molecule |
| --- | --- |
| > 7.51 | Ac-LTFEHYWK(Ac)QLTS-NH2 |
| > 7.32 | CC(=O)NCCCC[C@H](NC(=O)[C@H](CC(C)C)NC(=O)[C@H](CCC(N)=O)NC(=O)[C@H](C)NC(=O)[C@H](Cc1c[nH]c2ccccc12)NC(=O)[C@H](Cc1ccc(O)cc1)NC(=O)[C@H](Cc1cnc[nH]1)NC(=O)[C@H](CCC(=O)O)NC(=O)[C@H](Cc1ccccc1)NC(=O)[C@@H](NC(=O)[C@H](CC(C)C)NC(C)=O)[C@@H](C)O)C(=O)N[C@@H](CO)C(N)=O |
| > 7.32 | Ac-LTFEHYWAK(Ac)LTS-NH2 |
| > 8.00 | CC(=O)NCCCC[C@H](NC(=O)[C@H](Cc1ccccc1)NC(=O)[C@@H](NC(=O)[C@H](CC(C)C)NC(C)=O)[C@@H](C)O)C(=O)N[C@@H](Cc1cnc[nH]1)C(=O)N[C@@H](Cc1ccc(O)cc1)C(=O)N[C@@H](Cc1c[nH]c2ccccc12)C(=O)N[C@@H](C)C(=O)N[C@@H](CCC(N)=O)C(=O)N[C@@H](CC(C)C)C(=O)N[C@H](C(=O)N[C@@H](CO)C(N)=O)[C@@H](C)O |

tested on: U2OS; test: Drug uptake in human U2OS cells at 20 uM after 4 hrs by fluorescence microscopy; assay type: ADME, cell-based

| Drug uptake | Molecule |
| --- | --- |
| Active | C=C(C)C(=O)NCCCC[C@H](NC(=O)[C@H](Cc1ccccc1)NC(=O)[C@@H](NC(=O)[C@H](CC(C)C)NC(C)=O)[C@@H](C)O)C(=O)N[C@@H](CCCNC(=N)N)C(=O)N[C@@H](Cc1ccc(O)cc1)C(=O)N[C@@H](Cc1c[nH]c2ccccc12)C(=O)N[C@@H](CCCNC(=N)N)C(=O)N[C@@H](CCC(N)=O)C(=O)N[C@@H](CC(C)C)C(=O)N[C@@H](CCCCNC(=O)c1nnn(-c2ccc(OC)cc2)n1)C(=O)N[C@@H](CO)C(N)=O (Ac-LTFK(Methacryloyl)RYWRQLK(Tetrazole5CO(2-(4-MeOPh)))S-NH2) |
| Active | C=C(C)C(=O)NCCCC[C@H](NC(=O)[C@H](Cc1ccccc1)NC(=O)[C@@H](NC(=O)[C@H](CC(C)C)NC(C)=O)[C@@H](C)O)C(=O)N[C@@H](Cc1cnc[nH]1)C(=O)N[C@@H](Cc1ccc(O)cc1)C(=O)N[C@@H](Cc1c[nH]c2ccccc12)C(=O)N[C@@H](C)C(=O)N[C@@H](CCCN=C(N)N)C(=O)N[C@@H](CC(C)C)C(=O)N[C@@H](CCCCNC(=O)c1nnn(-c2ccc(OC)cc2)n1)C(=O)N[C@@H](CO)C(N)=O |
| Active | C=C(C)C(=O)NCCCC[C@H](NC(=O)[C@H](Cc1ccccc1)NC(=O)[C@@H](NC(=O)[C@H](CC(C)C)NC(C)=O)[C@@H](C)O)C(=O)N[C@@H](CCCN=C(N)N)C(=O)N[C@@H](Cc1ccc(O)cc1)C(=O)N[C@@H](Cc1c[nH]c2ccccc12)C(=O)N[C@@H](C)C(=O)N[C@@H](CCCN=C(N)N)C(=O)N[C@@H](CC(C)C)C(=O)N[C@@H](CCCCNC(=O)c1nnn(-c2ccc(OC)cc2)n1)C(=O)N[C@@H](CO)C(N)=O (Ac-LTFK(Methacryloyl)RYWARLK(Tetrazole5CO(2-(4-MeOPh)))S-NH2) |

Continued, molecule first:

| Molecule | Drug uptake |
| --- | --- |
| C=C(C)C(=O)NCCCC[C@H](NC(=O)[C@H](Cc1ccccc1)NC(=O)[C@@H](NC(=O)[C@H](CC(C)C)NC(C)=O)[C@@H](C)O)C(=O)N[C@@H](Cc1cnc[nH]1)C(=O)N[C@@H](Cc1ccc(O)cc1)C(=O)N[C@@H](Cc1c[nH]c2ccccc12)C(=O)N[C@@H](CCCN=C(N)N)C(=O)N[C@@H](CCC(N)=O)C(=O)N[C@@H](CC(C)C)C(=O)N[C@@H](CCCCNC(=O)c1nnn(-c2ccc(OC)cc2)n1)C(=O)N[C@@H](CO)C(N)=O | Active |
| COc1ccc(N2N=C(C(=O)NCCCC[C@H](NC(=O)[C@H](CC(C)C)NC(=O)[C@H](CCC(N)=O)NC(=O)[C@H](CCCNC(=N)N)NC(=O)[C@H](Cc3c[nH]c4ccccc34)NC(=O)[C@H](Cc3ccc(O)cc3)NC(=O)[C@H](CCCNC(=N)N)NC(=O)[C@H](CCCCNC(C)=O)NC(=O)[C@H](Cc3ccccc3)NC(=O)[C@@H](NC(=O)[C@H](CC(C)C)NC(C)=O)[C@@H](C)O)C(=O)N[C@@H](CO)C(N)=O)CC2C(N)=O)cc1 (some centres not stated) (Ac-LTFK(Ac)RYWRQLK(X1)S-NH2) | Active |
| C=C(C)C(=O)NCCCC[C@H](NC(=O)[C@H](Cc1ccccc1)NC(=O)[C@@H](NC(=O)[C@H](CC(C)C)NC(C)=O)[C@@H](C)O)C(=O)N[C@@H](CCCN=C(N)N)C(=O)N[C@@H](Cc1ccc(O)cc1)C(=O)N[C@@H](Cc1c[nH]c2cc(Cl)ccc12)C(=O)N[C@@H](CCCN=C(N)N)C(=O)N[C@@H](CCC(N)=O)C(=O)N[C@@H](CC(C)C)C(=O)N[C@@H](CCCCNC(=O)c1nnn(-c2ccc(OC)cc2)n1)C(=O)N[C@@H](CO)C(N)=O (Ac-LTFK(Methacryloyl)RY[Trp(6-Cl)]RQLK(Tetrazole5CO(2-(4-MeOPh)))S-NH2) | Active |

tested on: U2OS; test: Induction of p53-dependent luciferase activity in human U2OS cells at 20 uM; assay type: functional, cell-based

| Molecule | Activity |
| --- | --- |
| Ac-LTFEHYWAQLTS-NH2 | inactive |
| COc1ccc(N2N=C(C(=O)NCCCC[C@H](NC(=O)[C@H](CC(C)C)NC(=O)[C@H](CCC(N)=O)NC(=O)[C@H](CCCNC(=N)N)NC(=O)[C@H](Cc3c[nH]c4ccccc34)NC(=O)[C@H](Cc3ccc(O)cc3)NC(=O)[C@H](CCCNC(=N)N)NC(=O)[C@H](CCCCNC(C)=O)NC(=O)[C@H](Cc3ccccc3)NC(=O)[C@@H](NC(=O)[C@H](CC(C)C)NC(C)=O)[C@@H](C)O)C(=O)N[C@@H](CO)C(N)=O)CC2C(N)=O)cc1 (some centres not stated) (Ac-LTFK(Ac)RYWRQLK(X1)S-NH2) | inactive |
